According to ChEMBL document CHEMBL1134506, “Design and synthesis of 2-methyl-2-[4-(2-[5-methyl-2-aryloxazol-4-yl]ethoxy)phenoxy]propionic acids: a new class of dual PPARalpha/gamma agonists” (J Med Chem, 2001):

Tests used:
[1] = biological target: T1, Peroxisome proliferator-activated receptor alpha (Homo sapiens, UniProt Q07869); assay: Binding affinity towards human […] proliferator activated receptor alpha (hPPARalpha)
T1 sequence (Q07869 whole entry): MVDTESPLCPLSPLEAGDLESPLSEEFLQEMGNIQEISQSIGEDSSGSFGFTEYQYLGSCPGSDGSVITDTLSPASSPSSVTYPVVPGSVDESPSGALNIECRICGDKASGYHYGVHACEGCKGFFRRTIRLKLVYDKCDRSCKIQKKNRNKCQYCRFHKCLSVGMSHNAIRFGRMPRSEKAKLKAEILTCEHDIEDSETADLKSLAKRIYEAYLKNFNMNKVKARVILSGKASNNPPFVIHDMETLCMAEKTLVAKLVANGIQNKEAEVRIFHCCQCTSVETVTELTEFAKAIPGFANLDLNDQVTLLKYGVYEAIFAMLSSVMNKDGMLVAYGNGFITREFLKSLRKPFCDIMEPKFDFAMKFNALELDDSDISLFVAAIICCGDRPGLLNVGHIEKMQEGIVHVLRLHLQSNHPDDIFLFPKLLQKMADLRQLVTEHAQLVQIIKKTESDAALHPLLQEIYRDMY

[2] = biological target: T1, Peroxisome proliferator-activated receptor alpha; assay: (§1) Binding affinity at human PPAR alpha
[3] = biological target: T2, Peroxisome proliferator-activated receptor gamma (Homo sapiens, UniProt P37231)
T2 sequence (P37231 whole entry): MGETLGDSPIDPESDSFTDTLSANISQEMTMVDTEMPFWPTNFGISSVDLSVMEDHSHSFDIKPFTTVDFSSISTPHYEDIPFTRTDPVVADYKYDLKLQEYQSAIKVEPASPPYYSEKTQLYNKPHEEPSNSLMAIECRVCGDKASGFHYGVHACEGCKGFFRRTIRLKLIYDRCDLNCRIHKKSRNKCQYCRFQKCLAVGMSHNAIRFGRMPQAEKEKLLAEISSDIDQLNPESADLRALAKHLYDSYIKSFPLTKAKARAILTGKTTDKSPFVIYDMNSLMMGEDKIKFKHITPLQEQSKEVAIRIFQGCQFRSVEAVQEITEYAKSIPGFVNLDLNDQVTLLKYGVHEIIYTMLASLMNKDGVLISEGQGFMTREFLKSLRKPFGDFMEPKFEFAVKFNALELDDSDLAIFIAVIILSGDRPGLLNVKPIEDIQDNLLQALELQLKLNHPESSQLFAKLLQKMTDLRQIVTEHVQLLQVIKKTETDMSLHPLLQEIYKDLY

[4] = biological target: T2, Peroxisome proliferator-activated receptor gamma; remark: listed apart in the source
Description: Binding affinity at human peroxidase proliferator activated receptor gamma (hPPARgamma)

[5] = biological target: T3, Peroxisome proliferator-activated receptor gamma (Homo sapiens) (UniProt P37231); assay: Binding affinity at human PPAR gamma
T3 sequence (whole entry): T2 sequence (P37231 whole entry)

[6] = biological target: T4, Peroxisome proliferator-activated receptor alpha (Homo sapiens) (UniProt Q07869); assay: as §1
T4 sequence (whole entry): T1 sequence (Q07869 whole entry)

[7] = biological target: T2, Peroxisome proliferator-activated receptor gamma; assay: Binding affinity at human […] proliferator activated receptor gamma (hPPARgamma); No binding
[8] = biological target: T1, Peroxisome proliferator-activated receptor alpha; assay: Binding affinity towards human […] proliferator activated receptor alpha (hPPARalpha); No binding

| SMILES | IC50 [1] [nM] | EC50 [2] [nM] | EC50 [3] [nM] | IC50 [4] [nM] | Efficacy [5] [%] | Efficacy [6] [%] | IC50 [7] | IC50 [8] |
| --- | --- | --- | --- | --- | --- | --- | --- | --- |
| Cc1oc(-c2ccc(-c3ccccc3)cc2)nc1CCOc1ccc(OC(C)(C)C(=O)O)cc1 | 174 | 149 | 882 | 548 | – | – | – | – |
| Cc1oc(-c2ccc(Br)cc2)nc1CCOc1ccc(OC(C)(C)C(=O)O)cc1 | 242 | 61.9 | 1720 | 4560 | – | – | – | – |
| CN(CCOc1ccc(CC2SC(=O)NC2=O)cc1)c1ccccn1 (stereo unspecified) | – | – | – | – | – | 20 | – | – |
| Cc1oc(-c2ccccc2)nc1CCOc1ccc(OC(C)(C)C(=O)O)cc1 | 1440 | 717 | 2060 | 3020 | – | – | – | – |
| CC(C)(Oc1ccc(C(=O)c2ccc(Cl)cc2)cc1)C(=O)O [FENOFIBRIC ACID] | 68000 | – | – | – | < 20 | < 20 | Not Active | – |
| Cc1c(C)c2c(c(C)c1O)CCC(C)(COc1ccc(CC3SC(=O)NC3=O)cc1)O2 (stereo unspecified) [TROGLITAZONE] | – | – | – | – | – | < 20 | – | Not Active |

More lines, main results first:

| IC50 [1] [nM] | EC50 [2] [nM] | EC50 [3] [nM] | IC50 [4] [nM] | SMILES | Efficacy [5] [%] | Efficacy [6] [%] | IC50 [7] | IC50 [8] |
| --- | --- | --- | --- | --- | --- | --- | --- | --- |
| 2030 | 625 | 2750 | 3120 | Cc1oc(-c2ccccc2)nc1CCOc1ccc(OC(C)C(=O)O)cc1 (stereo unspecified) | – | – | – | – |
| 10600 | 2750 | – | 10600 | Cc1oc(-c2ccccc2)nc1CCOc1ccc(OCC(=O)O)cc1 | 20 | – | – | – |
| 4090 | 771 | 8 | 14 | Cc1oc(-c2ccccc2)nc1CCOc1ccc(CC2SC(=O)NC2=O)cc1 (stereo unspecified) | – | – | – | – |
